Source: patent US9169254B2, “Spiroimidazolone derivative” (Chugai Seiyaku Kabushiki Kaisha, priority 2009, dated 2015)

target: T1, human PTH1 receptor (Homo sapiens, UniProt Q03431); test: In vitro cAMP signal activity in HKRK-B7 cells (LLC-PK1 cells overexpressing the human PTH1 receptor); type: cell-based; conditions: HKRK-B7 cells; compound at 1×10^−3 M; cAMP produced as percentage of that produced by hPTH(1-34) at 100 nM
T1 sequence (Q03431 27-593): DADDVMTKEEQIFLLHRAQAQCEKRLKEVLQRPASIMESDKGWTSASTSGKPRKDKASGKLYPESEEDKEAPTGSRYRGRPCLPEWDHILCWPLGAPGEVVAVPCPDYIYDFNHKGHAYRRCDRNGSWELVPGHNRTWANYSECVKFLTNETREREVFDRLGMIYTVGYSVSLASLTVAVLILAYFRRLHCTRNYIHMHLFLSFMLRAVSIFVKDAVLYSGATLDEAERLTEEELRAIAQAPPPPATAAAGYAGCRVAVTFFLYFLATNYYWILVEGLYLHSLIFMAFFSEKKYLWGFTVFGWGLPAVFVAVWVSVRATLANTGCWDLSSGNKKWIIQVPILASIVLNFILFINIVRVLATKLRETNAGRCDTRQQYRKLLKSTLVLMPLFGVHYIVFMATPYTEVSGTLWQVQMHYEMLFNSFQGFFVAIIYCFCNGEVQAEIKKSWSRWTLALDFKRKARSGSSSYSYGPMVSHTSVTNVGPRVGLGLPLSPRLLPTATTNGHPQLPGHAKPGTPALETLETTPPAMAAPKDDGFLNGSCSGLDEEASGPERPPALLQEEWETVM

Row | SMILES | cAMP production activity (%)
1 | CCCCCCCCCC1=NC2(CCN(S(=O)(=O)CCc3ccc(C(=O)N4CCCC4)cc3C)CC2)C(=O)N1 [Compound 977, 8-{2-[2-Methyl-4-(pyrrolidine-1-carbonyl)-phenyl]-ethanesulfonyl}-2-nonyl-1,3,8-triaza-spiro[4.5]dec-1-en-4-one] | 80
2 | Cc1cc(/C=C/S(=O)(=O)N2CCC3(CC2)N=C(C2CCC(C)CC2)NC3=O)cc(C)c1N1C(=O)CNC1=O (stereo not drawn) [Compound 583, 3-(2,6-dimethyl-4-{(E)-2-[2-(4-methyl-cyclohexyl)-4-oxo-1,3,8-triaza-spiro[4.5]dec-1-ene-8-sulfonyl]-vinyl}-phenyl)-imidazolidine-2,4-dione] | 85
3 | O=C1NC(C2CCCCC2)=NC12CCN(S(=O)(=O)/C=C/c1ccccc1C(F)(F)F)CC2 [Compound 179, 2-cyclohexyl-8-[(E)-2-(2-trifluoromethyl-phenyl)-ethenesulfonyl]-1,3,8-triaza-spiro[4.5]dec-1-en-4-one] | 49
4 | COc1c(N(C)C(N)=O)cc(C)c(/C=C/S(=O)(=O)N2CCC3(CC2)N=C([C@H]2CC[C@H](C)CC2)NC3=O)c1C [Compound 693, 1-(2-Methoxy-3,5-dimethyl-4-{(E)-2-[2-(4-methyl-cyclohexyl)-4-oxo-1,3,8-triaza-spiro[4.5]dec-1-ene-8-sulfonyl]-vinyl}-phenyl)-1-methyl-urea] | 103
5 | Cc1cc(C(=O)N2CCCO2)cc(C)c1/C=C/S(=O)(=O)N1CCC2(CC1)N=C(C1CCC(CCC(F)(F)F)CC1)NC2=O (stereo not drawn) [Compound 992, 8-{(E)-2-[4-(isoxazolidine-2-carbonyl)-2,6-dimethyl-phenyl]-ethenesulfonyl}-2-[4-(3,3,3-trifluoro-propyl)-cyclohexyl]-1,3,8-triaza-spiro[4.5]dec-1-en-4-one] | 65
6 | [2H]C([2H])([2H])C([2H])(Oc1ccc(C2=NC3(CCN(S(=O)(=O)/C=C/c4c(C)cc(C(=O)N5CCC(O)(CF)CC5)cc4C)CC3)C(=O)N2)cc1C(F)(F)F)C([2H])([2H])[2H] [Compound 1262, 8-{(E)-2-[4-(4-fluoromethyl-4-hydroxy-piperidine-1-carbonyl)-2,6-dimethyl-phenyl]-ethenesulfonyl}-2-(4-[1,2,2,2,2,2,2-^2H7]isopropoxy-3-trifluoromethyl-phenyl)-1,3,8-triaza-spiro[4.5]dec-1-en-4-one] | 90
7 | O=C1NC(c2ccc(Cl)cc2)=NC12CCN(S(=O)(=O)/C=C/c1cccc3c1ccn3C[C@H](O)CO)CC2 [Compound 250, 2-(4-chloro-phenyl)-8-{(E)-2-[1-((S)-2,3-dihydroxy-propyl)-1H-indol-4-yl]-ethenesulfonyl}-1,3,8-triaza-spiro[4.5]dec-1-en-4-one] | 62
8 | Cc1cc(N(C2CCC(O)CC2)S(C)(=O)=O)cc(C)c1/C=C/S(=O)(=O)N1CCC2(CC1)N=C(c1cccc(OC(F)(F)F)c1)NC2=O (stereo not drawn) [Compound 715, N-(3,5-dimethyl-4-{(E)-2-[4-oxo-2-(3-trifluoromethoxy-phenyl)-1,3,8-triaza-spiro[4.5]dec-1-ene-8-sulfonyl]-vinyl}-phenyl)-N-(4-hydroxy-cyclohexyl)-methane sulfonamide] | 20
9 | Cc1cc(OC[C@H](O)CO)cc(C)c1/C=C/S(=O)(=O)N1CCC2(CC1)N=C(c1ccc(F)c(OC(F)(F)F)c1)NC2=O [Compound 1164, 8-{(E)-2-[4-((R)-2,3-Dihydroxy-propoxy)-2,6-dimethyl-phenyl]-ethenesulfonyl}-2-(4-fluoro-3-trifluoromethoxy-phenyl)-1,3,8-triaza-spiro[4.5]dec-1-en-4-one] | 4.7
10 | O=C1NC(C2CCCCC2)=NC12CCN(S(=O)(=O)CCc1cccc3c1ccn3C[C@H](O)[C@@H](O)CO)CC2 [Compound 1392, 2-Cyclohexyl-8-{2-[1-((2S,3S)-2,3,4-trihydroxy-butyl)-1H-indol-4-yl]-ethanesulfonyl}-1,3,8-triaza-spiro[4.5]dec-1-en-4-one] | 89
11 | CCCS(=O)(=O)CCCCCC1=NC2(CCN(S(=O)(=O)/C=C/c3c(C)cc(N(C)C(N)=O)cc3C)CC2)C(=O)N1 [Compound 1318, 1-[3,5-Dimethyl-4-((E)-2-{4-oxo-2-[5-(propane-1-sulfonyl)-pentyl]-1,3,8-triaza-spiro[4.5]dec-1-ene-8-sulfonyl}-vinyl)-phenyl]-1-methyl-urea] | 19
12 | Cc1cc2ccc1CCS(=O)(=O)N1CCC3(CC1)N=C(NC3=O)c1cc(cc(C(F)(F)F)c1)OCC/C=C/CCCCCCN(C)C2=O [Compound 1416] | 48
13 | Cc1cc(OCCC(O)CO)ccc1/C=C/S(=O)(=O)N1CCC2(CC1)N=C(c1cccc(OC(F)(F)F)c1)NC2=O (stereo not drawn) [Compound 531, 8-{(E)-2-[4-(3,4-dihydroxy-butoxy)-2-methyl-phenyl]-ethenesulfonyl}-2-(3-trifluoromethoxy-phenyl)-1,3,8-triaza-spiro[4.5]dec-1-en-4-one] | 69
14 | Cc1cc(OCC2(C)COC2)ccc1/C=C/S(=O)(=O)N1CCC2(CC1)N=C(C1CCCCC1)NC2=O [Compound 739, 2-Cyclohexyl-8-{(E)-2-[2-methyl-4-(3-methyl-oxetan-3-ylmethoxy)-phenyl]-ethenesulfonyl}-1,3,8-triaza-spiro[4.5]dec-1-en-4-one] | 47
15 | CC[C@H]1CC[C@H](C2=NC3(CCN(S(=O)(=O)CCc4ccc(N5CC(=O)NC5=O)cc4C)CC3)C(=O)N2)CC1 [Compound 878, 1-(4-{2-[2-(4-ethyl-cyclohexyl)-4-oxo-1,3,8-triaza-spiro[4.5]dec-1-ene-8-sulfonyl]-ethyl}-3-methyl-phenyl)-imidazolidine-2,4-dione] | 25
16 | Cc1cc(N2C(=O)CC[C@@H]2CO)cc(C)c1/C=C/S(=O)(=O)N1CCC2(CC1)N=C(c1cccc(OC(F)(F)F)c1)NC2=O [Compound 258, 8-{(E)-2-[4-((R)-2-hydroxymethyl-5-oxo-pyrrolidin-1-yl)-2,6-dimethyl-phenyl]-ethenesulfonyl}-2-(3-trifluoromethoxy-phenyl)-1,3,8-triaza-spiro[4.5]dec-1-en-4-one] | 87
17 | Cc1cc(N(C)C(N)=O)cc(C)c1CCS(=O)(=O)N1CCC2(CC1)N=C(C1CCC(CCC(F)(F)F)CC1)NC2=O (stereo not drawn) [Compound 696, 1-[3,5-Dimethyl-4-(2-{4-oxo-2-[4-(3,3,3-trifluoro-propyl)-cyclohexyl]-1,3,8-triaza-spiro[4.5]dec-1-ene-8-sulfonyl}-ethyl)-phenyl]-1-methyl-urea] | 132
18 | O=C(Nc1ccc(CCS(=O)(=O)N2CCC3(CC2)N=C(C2CCCCC2)NC3=O)c(C(F)(F)F)c1)c1ccccc1 [Compound 662, N-{4-[2-(2-cyclohexyl-4-oxo-1,3,8-triaza-spiro[4.5]dec-1-ene-8-sulfonyl)-ethyl]-3-trifluoromethyl-phenyl}-benzamide] | 23
19 | Cc1cc(C(=O)N2CCC(O)(CF)CC2)cc(C)c1/C=C/S(=O)(=O)N1CCC2(CC1)N=C(c1ccc(C(F)(F)F)c(OC(C)(C)C(F)(F)F)c1)NC2=O [Compound 1266, 8-{(E)-2-[4-(4-fluoromethyl-4-hydroxy-piperidine-1-carbonyl)-2,6-dimethyl-phenyl]-ethenesulfonyl}-2-[3-(2,2,2-trifluoro-1,1-dimethyl-ethoxy)-4-trifluoromethyl-phenyl]-1,3,8-triaza-spiro[4.5]dec-1-en-4-one] | 96
20 | Cc1cc(OC[C@H](O)CO)cc(C)c1CCS(=O)(=O)N1CCC2(CC1)N=C(c1ccc(F)c(OC(F)(F)F)c1)NC2=O [Compound 1329, 8-{2-[4-((R)-2,3-dihydroxy-propoxy)-2,6-dimethyl-phenyl]-ethanesulfonyl}-2-(4-fluoro-3-trifluoromethoxy-phenyl)-1,3,8-triaza-spiro[4.5]dec-1-en-4-one] | 85
21 | Cc1cc(N(C)C(N)=O)cc(C)c1CCS(=O)(=O)N1CCC2(CC1)N=C(C1CCC(CC(F)(F)F)CC1)NC2=O (stereo not drawn) [Compound 936, 1-[3,5-Dimethyl-4-(2-{4-oxo-2-[4-(2,2,2-trifluoro-ethyl)-cyclohexyl]-1,3,8-triaza-spiro[4.5]dec-1-ene-8-sulfonyl}-ethyl)-phenyl]-1-methyl-urea] | 98
22 | Cc1cc(N(C)C(N)=O)cc(C)c1CCS(=O)(=O)N1CCC2(CC1)N=C(CCCCCCCCCCCO)NC2=O [Compound 1361, 1-(4-{2-[2-(11-hydroxy-undecyl)-4-oxo-1,3,8-triaza-spiro[4.5]dec-1-ene-8-sulfonyl]-ethyl}-3,5-dimethyl-phenyl)-1-methyl-urea] | 104
23 | CCCC1=NC2(CCN(S(=O)(=O)c3cccc(Cl)c3)CC2)C(=O)N1 [Compound 3, 8-(3-chloro-benzenesulfonyl)-2-propyl-1,3,8-triaza-spiro[4.5]dec-1-en-4-one] | 20
24 | Cc1cc(C(=O)N2CCC(C)(O)CC2)cc(C)c1/C=C/[S@TB4](=O)(=O)N1CCC2(CC1)N=C(c1ccc(Cl)c(OC(F)(F)F)c1)NC2=O [Compound 1093, 2-(4-chloro-3-trifluoromethoxy-phenyl)-8-{(E)-2-[4-(4-hydroxy-4-methyl-piperidine-1-carbonyl)-2,6-dimethyl-phenyl]-ethenesulfonyl}-1,3,8-triaza-spiro[4.5]dec-1-en-4-one] | 100
